We go through three compounds from US7687538B2 (priority 2004, dated 2010).

One test concerns the target κ-opioid receptor (KOR) (Homo sapiens, UniProt P41145). Nature of the test: biochemical. The format is binding.
In test [1] the target is kappa opiate receptor (KOR) (Homo sapiens, UniProt P41145). To be noted: Roth 2002; cited from earlier work.
The conditions of test [2]: Siebert 1994; cited from earlier work.

Sequence of κ-opioid receptor (KOR) (P41145 whole entry): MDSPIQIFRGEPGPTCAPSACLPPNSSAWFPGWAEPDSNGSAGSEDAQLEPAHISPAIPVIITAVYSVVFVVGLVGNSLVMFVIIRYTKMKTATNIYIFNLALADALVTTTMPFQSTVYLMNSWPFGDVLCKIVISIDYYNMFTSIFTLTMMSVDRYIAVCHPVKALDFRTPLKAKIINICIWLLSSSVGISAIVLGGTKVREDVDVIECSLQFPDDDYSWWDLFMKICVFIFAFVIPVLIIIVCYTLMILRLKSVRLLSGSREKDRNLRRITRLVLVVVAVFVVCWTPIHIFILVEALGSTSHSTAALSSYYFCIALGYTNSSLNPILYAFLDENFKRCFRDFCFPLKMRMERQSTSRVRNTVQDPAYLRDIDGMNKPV
Sequence of kappa opiate receptor (KOR) (P41145 whole entry): as above

Turning to `COC(=O)[C@@H]1C[C@H](S)C(=O)[C@H]2[C@@]1(C)CC[C@H]1C(=O)O[C@H](c3ccoc3)C[C@]21C` [2-Thiol salvinorin B], the Ki on κ-opioid receptor (KOR) came to 11.2 nM. Consider `COC(=O)[C@@H]1C[C@H](OC(C)=O)C(=O)[C@H]2[C@@]1(C)CC[C@H]1C(=O)O[C@H](c3ccoc3)C[C@]21C` [Salvinorin A], for which the “agonist character at the kappa opiate receptor” value in test [1] was “full agonist”. For the same compound, the “human dose (psychedelic agent)” value in test [2] was 0.5 to 1 mg. At κ-opioid receptor (KOR), `COC(=O)[C@@H]1C[C@H](SC(C)=O)C(=O)[C@H]2[C@@]1(C)CC[C@H]1C(=O)O[C@H](c3ccoc3)C[C@]21C` [Salvinorinyl-2-thioacetate] showed a Ki of 7.9 nM.
